Assay results: ChEMBL document CHEMBL3259547, “Selective 5-HT Receptor Modulators May Deliver Focused Targeting with Fewer Adverse Effects” (ACS Med Chem Lett, 2014)

Biological target: 5-hydroxytryptamine receptor 7 (Rattus norvegicus) (UniProt P32305)
Assay: Modulation of rat 5HT7 receptor by cAMP assay
Format: functional

5-hydroxytryptamine receptor 7 (Rattus norvegicus), sequence (P32305 whole entry): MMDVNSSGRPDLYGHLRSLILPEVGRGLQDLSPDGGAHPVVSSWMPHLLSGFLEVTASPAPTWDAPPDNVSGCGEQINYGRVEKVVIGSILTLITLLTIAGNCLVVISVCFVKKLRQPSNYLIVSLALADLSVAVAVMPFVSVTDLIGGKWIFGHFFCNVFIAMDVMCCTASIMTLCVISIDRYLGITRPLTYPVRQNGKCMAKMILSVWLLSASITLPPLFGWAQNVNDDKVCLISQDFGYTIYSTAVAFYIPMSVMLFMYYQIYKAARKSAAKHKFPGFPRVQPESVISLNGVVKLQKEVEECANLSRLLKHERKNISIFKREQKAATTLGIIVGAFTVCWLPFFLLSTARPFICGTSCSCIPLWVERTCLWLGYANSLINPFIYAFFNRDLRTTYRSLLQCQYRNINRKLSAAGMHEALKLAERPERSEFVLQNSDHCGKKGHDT

Structure (SMILES) | pKb
FC(F)(COc1ccc(Cl)cc1OC1CNC1)c1ccccc1 | 7.3
C[C@@H](Oc1ccc(C(F)(F)F)cc1OC1CNC1)c1cccc(C(F)(F)F)c1 | 6.8
Clc1cccc(COc2ccc(Br)cc2OC2CNC2)c1 | 7.5
Cc1nc(COc2ccc(Cl)cc2OC2CNC2)cs1 | 6.9
